Assays:
Format in all cases: cell-based
Granta-519 cells = experiment: ATPLite anti-proliferation assay (GI) and synergy score, 120 h
Procedure: (§1) The endpoint readout of the anti-proliferation assay was based upon quantitation of ATP as an indicator of viable cells. Cells were thawed from a liquid nitrogen preserved state. Once cells had been expanded and divided at their expected doubling times, screening began. Cells were seeded in growth media in black 384-well tissue culture treated plates at 500 cells per well (except where noted in Analyzer). Cells were equilibrated in assay plates via centrifugation and placed in incubators attached to the Dosing Modules at 37° C. for twenty-four hours before treatment. […] These Tzero (T0) plates were read using ultra-sensitive luminescence on Envision Plate Readers. Treated assay plates were incubated with the compound for one hundred twenty hours. After one hundred twenty hours, plates were developed for endpoint analysis using ATPLite. All data points were collected via automated processes; quality controlled; and analyzed using Horizon CombinatoRx proprietary software. Assay plates were accepted if they pass the following quality control standards: relative luciferase values were consistent throughout the entire experiment, Z-factor scores were greater than 0.6, untreated/vehicle controls behaved consistently on the plate.
(§2) Horizon Discovery utilized Growth Inhibition (GI) as a measure of cell viability. The cell viability of vehicle was measured at the time of dosing (T0) and after one hundred twenty hours (T120). A GI reading of 0% represented no growth inhibition—cells treated with compound and T120 vehicle signals were matched. […] A GI 200% represents complete death of all cells in the culture well. Compounds reaching an activity plateau of GI 200% were considered cytotoxic. Horizon CombinatoRx calculates GI by applying the following test and equation: […]
(§3) To measure combination effects in excess of Loewe additivity, Horizon Discovery has devised a scalar measure to characterize the strength of synergistic interaction termed the Synergy Score. The Synergy Score was calculated as:
(§4) Synergy Score=log fx log fyΣmax(0,Idata)(Idata−ILoewe)
(§5) The fractional inhibition for each component agent and combination point in the matrix was calculated relative to the median of all vehicle-treated control wells. The Synergy Score equation integrated the experimentally-observed activity volume at each point in the matrix in excess of a model surface numerically derived from the activity of the component agents using the Loewe model for additivity. Additional terms in the Synergy Score equation (above) were used to normalize for various dilution factors used for individual agents and to allow for comparison of synergy scores across an entire experiment. The inclusion of positive inhibition gating or an Idata multiplier removed noise near the zero effect level, and biased results for synergistic interactions at that occur at high activity levels.
(§6) The cell viability of vehicle was measured at the time of dosing (T0) and after 120 h (T120). […] To measure combination effects, excess of Loewe additivity was used to characterize the strength of synergistic interaction, termed the synergy score. The assay and synergy score analysis were performed in accordance with the protocol set forth in Example 1B above.

JMP-1 cells = experiment: as above
Procedure: as §1, §2, §3, §4, §5, §6

JVM-13 cells = experiment: as above
Procedure: as §1, §2, §3, §4, §5, §6

JVM-2 cells = experiment: as above
Procedure: as §1, §2, §3, §4, §5, §6

Jeko-1 cells = experiment: as above
Procedure: as §1, §2, §3, §4, §5, §6

Maver-1 cells = experiment: as above
Procedure: as §1, §2, §3, §4, §5, §6

Mino cells = experiment: as above
Procedure: as §1, §2, §3, §4, §5, §6

PF-1 cells = experiment: as above
Procedure: as §1, §2, §3, §4, §5, §6

PF-2 cells = experiment: as above
Procedure: as §1, §2, §3, §4, §5, §6

Rec-1 cells = experiment: as above
Procedure: as §1, §2, §3, §4, §5, §6

Z-138 cells = experiment: as above
Procedure: as §1, §2, §3, §4, §5, §6

pIκBa S32 = experiment: Peggy Sue analysis of TMD-8 Ibrutinib resistant lines; conditions: idelalisib 420 nM, Compound B 320 nM
Procedure: Lysates were also analyzed by Simple Western using Peggy Sue (ProteinSimple). A standard curve using recombinant proteins was generated to measure PI3K isoform levels on Peggy Sue; data was processed using Compass software (ProteinSimple).
Total protein expression levels and phosphorylation of PI3K, MAPK, BTK and NF-κB components were determined by Western Blot or Peggy Sue. Cells were treated with idelalisib (420 nM), Compound B (320 nM) or in combination. Protein expression level and phosphoproteomics were determined using Western Blot (p-ERK 1/2, p-AKT S473, total AKT) and Peggy Sue (p-BTK, p-IκBα S32, total IκBα), using procedures as described in Example 3B. Results were quantitated after determining the AUC for each group and normalized to DMSO vehicle control.

c-Myc = c-Myc RNAseq and western blot in ABC-DLBCL cell lines
Procedure: Gene expression levels and mutations were determined by […]. The following bioinformatics platforms were used to analyze the sequence reads: DNA sequencing reads were aligned to human reference genome by BWA. Single nucleotide variants were identified using VarScan and were annotated using SnpEff Putative somatic mutations were prioritized by mutant allele frequency, recurrence and predicted functional impact. RNA sequencing reads were aligned to human reference genome using STAR and RNA abundance was quantified using RSEM. The Bioconductor package edgeR was used to normalize sequence count and limma was used to conduct differential gene expression analysis.
Protein expression was measured using Simple Western, SDS/PAGE and Western Blot or Peggy Sue (ProteinSimple), generally according to the procedures described above in Example 3B. Primary antibodies used to test phosphorylated protein or total protein levels include antibodies against: p-AKT (S473), p-AKT (T308), AKT, p-ERK (T202/Y204), p-S6 (S235/236), S6, p-PDK1 (S241), p-PLCγ2 (Y1217), p-GSK3β (S9), p-STAT3 (Y705), p-IκBα (S32), IκBα, p-SYK (Y525/526), p-BTK (Y223), PI3Kγ, PTEN, and actin.

[1] = A20-Q143* line, normalized to DMSO control, DMSO 1.39
[2] = control line, normalized to DMSO vehicle control

Row | SMILES | Max. Effect (% GI) (Granta-519 cells) | Max. Effect (% GI) (JMP-1 cells) | Max. Effect (% GI) (JVM-13 cells) | Max. Effect (% GI) (JVM-2 cells) | Max. Effect (% GI) (Jeko-1 cells) | Max. Effect (% GI) (Maver-1 cells) | Max. Effect (% GI) (Mino cells) | Max. Effect (% GI) (PF-1 cells) | Max. Effect (% GI) (PF-2 cells) | Max. Effect (% GI) (Rec-1 cells) | Max. Effect (% GI) (Z-138 cells) | pIκBa S32 (pIκBa S32; [1]) | pIκBa S32 (pIκBa S32; [2]) | c-Myc mRNA (RNAseq) (c-Myc; 500 nM idelalisib, sensitive cell lines (TMD8 and Ri-1)) | c-Myc (western blot) (c-Myc; TMD8^S)
1 | CC#CC(=O)N1CC[C@@H](n2c(=O)n(-c3ccc(Oc4ccccc4)cc3)c3c(N)ncnc32)C1 [Compound B, 6-amino-9-[(3R)-1-(2-butynoyl)-3-pyrrolidinyl]-7-(4-phenoxyphenyl)-7,9-dihydro-8H-purin-8-one] | 22 | 14 | 15 | 91 | 37 | 45 | 35 | 9 | 25 | 111 | 11 | 1.12 | 0.62 | – | –
2 | CCC(Nc1ncnc2[nH]cnc12)c1nc2cccc(F)c2c(=O)n1-c1ccccc1 (stereo not shown) [Idelalisib, 2-(1-((9H-Purin-6-yl)amino)propyl)-5-fluoro-3-phenylquinazolin-4(3H)-one] | 72 | 69 | 92 | 146 | 73 | 48 | 34 | 29 | 113 | 163 | 11 | 0.92 | 1.09 | c-Myc mRNA downregulation | inhibited
